In BindingDB's records for doi:10.7270/Q2MP51PC (Pcmd, 2008):

These compounds were tested against T1, Complement C1s subcomponent (Homo sapiens, UniProt P09871) (assay: concentration-response of complement C1s inhibitors – biochemical, dose response (AID 787)).
T1 sequence (P09871 whole entry): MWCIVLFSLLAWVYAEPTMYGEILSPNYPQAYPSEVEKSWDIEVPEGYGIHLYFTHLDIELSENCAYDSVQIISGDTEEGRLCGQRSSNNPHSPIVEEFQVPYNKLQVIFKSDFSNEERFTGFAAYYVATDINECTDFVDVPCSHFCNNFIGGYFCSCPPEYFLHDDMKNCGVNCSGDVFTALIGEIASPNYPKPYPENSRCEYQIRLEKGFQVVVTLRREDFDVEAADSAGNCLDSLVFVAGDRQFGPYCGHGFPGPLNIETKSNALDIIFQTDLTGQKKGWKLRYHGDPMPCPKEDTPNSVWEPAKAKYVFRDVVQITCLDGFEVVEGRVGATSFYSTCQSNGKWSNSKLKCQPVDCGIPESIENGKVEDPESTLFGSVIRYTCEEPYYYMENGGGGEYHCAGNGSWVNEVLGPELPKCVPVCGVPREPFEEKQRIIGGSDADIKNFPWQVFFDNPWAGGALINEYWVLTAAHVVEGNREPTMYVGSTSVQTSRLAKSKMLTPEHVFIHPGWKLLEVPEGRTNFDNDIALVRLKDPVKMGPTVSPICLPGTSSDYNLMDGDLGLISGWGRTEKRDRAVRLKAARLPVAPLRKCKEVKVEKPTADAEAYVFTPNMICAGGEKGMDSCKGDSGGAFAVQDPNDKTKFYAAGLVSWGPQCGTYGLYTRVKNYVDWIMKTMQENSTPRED

| IC50 [µM] | SMILES |
| --- | --- |
| > 50 | O=C(Nc1cc(Cl)ccc1N1CCOCC1)c1cnccn1 [MLS000076142] |
| > 50 | COc1cccc(NC(=O)CCP(C)(=O)O)c1 [MLS000079835] |
| > 50 | CC1(C)COCN1S(=O)(=O)c1ccc(C(=O)Nc2nnc(-c3ccc(Cl)s3)o2)cc1 [MLS000086346] |
| > 50 | CCCN(c1nc(C)cc(OC)n1)S(=O)(=O)c1ccccc1 [MLS000087928] |
| > 50 | Cc1cc(=O)[nH]c(SCC(=O)c2ccc(C(C)C)cc2)n1 [MLS000089861] |
| 34.7 | CCC(=O)Nc1cccc(-c2nc3ccccc3c(=O)o2)c1 [MLS000090237] |
| > 50 | CC(=O)Nc1ccc(NC(C)=O)s1 [MLS000105054] |
| > 50 | Cc1csc(NC(=O)c2ccco2)n1 [MLS000108918] |
| > 50 | COc1ccc2c(c1)CCc1c(C(=O)NCc3ccc(F)cc3)noc1-2 [MLS000116425] |
| > 50 | Cc1ccc(CCN2C(=O)CCC2(C)C(=O)NC2CCCC2)cc1 (stereo not given) [MLS000120119] |
| > 50 | COc1ccc2cc(CCNC(=O)C(C)C)c(=O)[nH]c2c1 [N-[2-(7-methoxy-2-oxo-1H-quinolin-3-yl)ethyl]-2-methylpropanamide] |
| > 50 | Cc1ccc(-c2noc(CN(C(=O)C34CC5CC(CC(C5)C3)C4)C(C)C)n2)cc1 [N-[[3-(4-methylphenyl)-1,2,4-oxadiazol-5-yl]methyl]-N-propan-2-yl-1-adamantanecarboxamide] |
| > 50 | CCCCn1c(=O)cc(N2CCOCC2)[nH]c1=O [SMR000018178] |
| > 50 | COc1ccc(NC(=O)c2[nH]cnc2C(=O)Nc2ccccc2C)cc1 [SMR000020470] |
| > 50 | COc1ccccc1/N=C/c1nc(-c2ccccc2)oc1OC(C)=O [SMR000039734] |
| > 50 | CCOc1ccc2[nH]c3c(N4CCN(c5ccccn5)CC4)ncnc3c2c1 [SMR000044529] |
| 25.9 | CC(=O)c1c(OC(=O)c2ccco2)c2ccccc2n1C [SMR000109417] |
| 0.88 | CSc1nc(-c2ccco2)nn1C(=O)c1cccs1 [[3-(furan-2-yl)-5-methylsulfanyl-1,2,4-triazol-1-yl]-thiophen-2-ylmethanone] |

Continued, compound first:

| SMILES | IC50 [µM] |
| --- | --- |
| COc1ccc(Cl)cc1NC(=O)CCN1CCN(c2ccccc2C)CC1 [MLS000075926] | > 50 |
| CCC(=O)Nc1ccc(C(=O)Nc2ccc3c(c2)OCO3)cc1 [MLS000085289] | > 50 |
| O=C(NCCc1ccccc1)c1noc2c1CCc1ccccc1-2 [MLS000087424] | 14 |
| COc1ccc(S(=O)(=O)N2CCOCC2)cc1C(=O)Nc1nc2ccccc2s1 [MLS000088961] | > 50 |
| CCc1ccccc1N(C(=O)c1cccs1)C1C=CS(=O)(=O)C1 (stereo not given) [MLS000093437] | > 50 |
| CCCCC(=O)Nc1ccc(NC(=O)c2ccc3c(c2)OCO3)cc1OC [MLS000097195] | > 50 |
| CCc1cc(=O)oc2cc(C)cc(OC(=O)c3ccco3)c12 [MLS000099547] | 10.1 |
| COc1cc(C)nc(NS(=O)(=O)c2ccccc2)n1 [MLS000100375] | > 50 |
| O=C1CCCC(=O)C1=CNCCc1ccccc1 [MLS000108318] | > 50 |
| COc1ccccc1CNC(=O)C1COc2ccccc2O1 (stereo not given) [MLS000110123] | > 50 |
| CCCCN1C(=O)/C(=C2\SC(N3CCCCC3)=NC2=O)c2ccccc21 [MLS000111979] | > 50 |
| CC1CCCN(C(C(=O)Nc2ccc3c(c2)OCO3)c2ccccc2)C1 (stereo not given) [MLS000116117] | > 50 |
| CN(CCNC(=O)Cn1c(=O)sc2ccccc21)Cc1ccccc1 [MLS000116175] | > 50 |
| Cc1nc(C)c(C(=O)Nc2cccc(C)c2C)o1 [MLS000118537] | > 50 |
| Cn1c(Cn2c(=O)sc3ccccc32)nnc1SCC(=O)NCc1ccccc1Cl [MLS000118585] | > 50 |
| COc1ccccc1S(=O)(=O)Cc1ccc(C(=O)NCCN(C)C)o1 [MLS000120198] | > 50 |
| CCCC(=O)Nc1ccc(C(=O)n2nnc3ccccc32)cc1 [N-[4-(1H-1,2,3-benzotriazol-1-ylcarbonyl)phenyl]butanamide] | 0.38 |
| CCc1nn(C(C)C(=O)NCCN2CCN(c3cccc(C)c3C)CC2)c(=O)c2cc3occc3n12 (stereo not given) [SMR000029605] | > 50 |
| COc1ccc(NC(=O)CSC2=NC3=C(C(=O)CCC3)C(c3ccco3)C2C#N)c(OC)c1 (stereo not given) [SMR000042323] | > 50 |
| Cc1nn(C(=O)c2ccccc2)c2c1C(=O)CC(C)(C)C2 [SMR000069174] | 5.35 |
| Cc1cc(OC(=O)c2ccccc2)n(CCC#N)n1 [[2-(2-cyanoethyl)-5-methyl-pyrazol-3-yl] benzoate] | 2.14 |
| CSc1nc(-c2ccco2)nn1C(=O)c1ccc(C)cc1 [[3-(furan-2-yl)-5-methylsulfanyl-1,2,4-triazol-1-yl]-(4-methylphenyl)methanone] | 0.9 |
